The source of these data is patent publication US5422341A, “Motilin-like polypeptides with gastrointestinal motor stimulating activity” (Ohmeda Pharmaceutical Products Division Inc., priority 1993, dated 1995).

Data set [1] is classed as in vitro ADME, hog. The settings on record: pH 7. The procedure: Like most small linear polypeptides, motilin is believed to be metabolized lo by the brush border cells of the kidney. Therefore, kidney homogenate was chosen as the model system for assessing the relative in vivo biostability of the peptides of this invention. All peptides to be studied were incubated in hog kidney (Pel Freeze, Inc., Rogers, Ark.) (2% w/v; final volume=4 ml; buffer=HEPES pH 7.0) at 25° C. Both initial substrate concentration and internal standard (Fmoc-Gly) concentration were 0.5 mg/ml. In order to determine suitable incubation times and sampling intervals, two experiments were conducted with each polypeptide. The first run served as a rough estimate of peptide stability. All sampling was performed in duplicate. Sample volume was 180 μl.
Sample clean-up was performed by addition of 20 μl of 100% TCA (final volume=200 μl; final TCA concentration=10%). The sample was vortexed for from 5 to 10 seconds to ensure equilibration, then centrifuged to spin out the precipitated proteins. Analysis was carried out on a Waters HPLC system with a WISP autoinjector, a 5μ Vydac C-18 analytical column, and a Waters 481 UV detector set at 214 nm. Injection volume was 80 μl. Initial solvent conditions were […] in Milli-Q water with a 35 minute gradient running to 63% acetonitrile/37% (0.1%) TFA at 1 ml/min.
Polypeptide substrate and metabolite peaks were ratioed to the internal standard and the duplicate sample ratios were averaged. The avenge ratio for the peptide substrate was expressed as a percentage and plotted versus time. First-order kinetics was assumed for data treatment. The rate of disappearance of the substrate was calculated using the Enzfitter program (Biosoft). Relative half-lives were determined from the relationship: […]

The next data set concerns the target T1, motilin receptor (Oryctolagus cuniculus, UniProt G1T803).
T1 construct: from tissue; host or cells: rabbit antral smooth muscle membranes
The data set can be described thus: Determination of motilin receptor binding affinity (displacement of [125I-Tyr7, Nle13]motilin(porcine)). Set-up: species or system rabbit. The following applies: negative logarithm of the concentration displacing 50% of [125I-Tyr7, Nle13]motilin(porcine) from rabbit antral smooth muscle membranes; read-out: pIC50 (converted). As to the method:
The motilin receptor binding affinity of the peptides of this invention was determined by using the general procedure of Bormans, Peelers and Vantrappen, Regul. […] Fitting was performed using the iterative least-squares procedure of the SAS-software package (SAS Institute, Inc., Cary, N.C., USA).

Data set [2] has as its target segments of rabbit duodenum (Oryctolagus cuniculus, UniProt G1T803). The data set can be described thus: Rabbit duodenal smooth muscle strip tissue bath assay. The following applies: negative logarithm of the dose giving 50% of the maximal response to motilin; isotonic contraction of rabbit duodenum segments. The class given is cell-based. Summed up: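 Isotonic contraction of rabbit duodenal segments after 1 h equilibration and 10^-4 M acetylcholine challenge; cumulative compound curve over 10^-11 to 10^-4 M, then 10^-7 M motilin. Runs discarded if final acetylcholine response differed >5%. EC50 at 50% of maximal motilin response, reported as pEC50.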

Data set [3] concerns canine gastrointestinal tract. The data set can be described thus: Contractile activity in the canine gastrointestinal tract. The class given is in vivo, dog. The settings on record: anesthetized dogs, intra-arterial injection to a duodenal segment; amount giving 50% of the calibration response to field stimulation. As to the method:
Mongrel dogs of either sex were anesthetized with sodium pentobarbital 65 mg/kg intravenously. A mid-line incision was made in the abdomen. A duodenal segment was located, the terminal arteries to that segment were identified, and the closest possible artery of the appropriate size was rubbed clean of fat and fascia. A needle of suitable diameter was bent at an angle and the tip inserted in the cleaned artery. The needle was held in position in the artery for approximately 30 seconds until vascular spasm has relaxed and then a catheter assembly was inserted into the artery and tied into position with 000 silk sutures. The fine polyethylene catheter (10-15 cm) was cut to a point at one end with a needle inserted at the other end. The hub of the needle was fitted with a 3-way stopcock and the catheter assembly was filled with heparinized Krebs Ringer bicarbonate containing 10 mM glucose. A bolus of Krebs (free of air) was injected into the arterial catheter and the distribution of blanching in the segment noted. If the area was too large, collateral arteries may be tied off as long as circulation to the area was maintained. A Bass type strain gauge was then sutured to the serosa, and oriented so that circular muscle contractions can be recorded on a Beckman R611 dynograph. Silver wire electrodes were inserted subserosally on either side of the strain gauge and were connected through stimulus isolation units to a Grass S88 electrical stimulator. Electrical field stimulation was applied at 40 V 0.5 ms and 5 pps and the amplitude of the pen recorder was set to contain the contractile response.
All peptides to be injected were dissolved in Krebs and serial dilutions were prepared so that for any concentration the maximum volume to be injected was 1 ml. All solutions except stock Krebs were held on ice for the day of the experiment and discarded at the end of the day. For determination of a dose-response curve, the site was first injected with a bolus of approximately 1 ml of heparinized Krebs to provide a flush control. Peptide agonists (in volumes of 1 ml flushed with 1 ml of Krebs) were injected in logarithmic increments until a response which was maximal in amplitude was obtained. The injection site was then flushed with Krebs containing 0.1% BSA to displace any peptide remaining in the arterial line. For peptides acting at the motilin receptor, care was taken not to inject supramaximal doses as these will induce tachyphylaxis. Therefore, as responses become apparent, 0.3 or 0.5 log unit increments were used. A site was used for a dose-response determination only every 1/2 to 1 hour.
The amplitude of the calibration response to field stimulation in each site was measured and used as 100% for that site. The amplitude of the response to the agonist at each dose was determined, calculated as a % of the calibration response and plotted against the concentration. The ED50 of the response represents the amount of agonist required to produce a response which was 50% of the calibration response.

SMILES strings stand for the structures. Where a name gives a salt, the structure may show the parent alone. Square brackets hold non-standard residues; d marks the D form. Peptide text beside a SMILES is read from it. * marks the point of attachment. X1 = C[N+](C)(C)[C@@H](Cc1ccccc1)C(=O)*; NMe2Phe = CN(C)[C@@H](Cc1ccccc1)C(=O)*; NMeF = CN[C@@H](Cc1ccccc1)C(=O)O

segments of rabbit duodenum, sequence (G1T803 1-400): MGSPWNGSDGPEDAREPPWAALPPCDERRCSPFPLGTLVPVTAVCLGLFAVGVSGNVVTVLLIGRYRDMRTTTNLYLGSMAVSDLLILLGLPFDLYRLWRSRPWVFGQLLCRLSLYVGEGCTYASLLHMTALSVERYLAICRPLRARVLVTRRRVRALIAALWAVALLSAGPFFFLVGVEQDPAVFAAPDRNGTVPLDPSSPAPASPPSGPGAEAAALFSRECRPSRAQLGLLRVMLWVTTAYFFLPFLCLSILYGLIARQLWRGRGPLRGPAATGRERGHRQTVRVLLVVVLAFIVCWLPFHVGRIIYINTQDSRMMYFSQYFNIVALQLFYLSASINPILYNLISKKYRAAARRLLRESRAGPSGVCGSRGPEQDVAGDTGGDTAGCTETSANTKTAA
T1 sequence (G1T803 1-400): as above

Compound `CC[C@H](C)[C@H](NC(=O)[C@@H]1CCCN1C(=O)[C@@H](NC(=O)[C@H](Cc1ccccc1)[N+](C)(C)C)C(C)C)C(=O)N[C@@H](Cc1ccccc1)C(=O)N[C@H](C(=O)N[C@@H](Cc1ccc(O)cc1)C(=O)NCC(=O)N[C@@H](CCC(=O)O)C(=O)N[C@@H](CC(C)C)C(=O)N[C@@H](CCC(N)=O)C(=O)N[C@H](CCCNC(=N)N)C(=O)N[C@@H](CC(C)C)C(=O)N[C@@H](CCCCN)C(N)=O)[C@@H](C)O` (X1-VPIFTYGELQ[dR]LK-NH2) yielded a T1/2 in data set [1] of 162. For the same compound, at motilin receptor, the IC50 was 1.17 nM. The pEC50 in data set [2] is reported as 7.60. In data set [3], this compound returned an ED50 of 0.15 nmol.

For the compound `CC[C@H](C)[C@H](NC(=O)[C@@H]1CCCN1C(=O)[C@@H](NC(=O)[C@H](Cc1ccccc1)NC)C(C)C)C(=O)N[C@@H](Cc1ccccc1)C(=O)N[C@H](C(=O)N[C@@H](Cc1ccc(O)cc1)C(=O)NCC(=O)N[C@@H](CCC(=O)O)C(=O)N[C@@H](CC(C)C)C(=O)N[C@@H](CCC(N)=O)C(=O)N[C@@H](CCCNC(=N)N)C(=O)N[C@@H](CC(C)C)C(=O)N[C@@H](CCC(N)=O)C(=O)O)[C@@H](C)O` [[N-MePhe^1, Leu^13]pMOT(1-14)] (H-[NMeF]VPIFTYGELQRLQ-OH), the T1/2 in data set [1] worked out at 12.8. Besides, the IC50 at motilin receptor was 2.63 nM. In data set [2], this compound displayed a pEC50 of 7.64.

In data set [1], `CC[C@H](C)[C@H](NC(=O)[C@@H]1CCCN1C(=O)[C@@H](NC(=O)[C@H](Cc1ccccc1)[N+](C)(C)C)C(C)C)C(=O)N[C@@H](Cc1ccccc1)C(=O)N[C@H](C(=O)N[C@@H](Cc1ccc(O)cc1)C(=O)NCC(=O)N[C@@H](CCC(=O)O)C(=O)N[C@@H](CC(C)C)C(=O)N[C@@H](CCC(N)=O)C(=O)N[C@H](CCCNC(=N)N)C(=O)N[C@@H](CC(C)C)C(=O)N[C@H](CCC(N)=O)C(N)=O)[C@@H](C)O` (X1-VPIFTYGELQ[dR]L[dQ]-NH2) displayed a T1/2 of 104. For the same compound, the IC50 on motilin receptor is 1.95 nM. Also, the pEC50 in data set [2] is reported as 7.39.

In data set [1], `CC[C@H](C)[C@H](NC(=O)[C@@H]1CCCN1C(=O)[C@@H](NC(=O)[C@H](Cc1ccccc1)[N+](C)(C)C)C(C)C)C(=O)N[C@@H](Cc1ccccc1)C(=O)N[C@H](C(=O)N[C@@H](Cc1ccc(O)cc1)C(=O)NCC(=O)N[C@@H](CCC(=O)O)C(=O)N[C@@H](CC(C)C)C(=O)N[C@@H](C)C(=O)N[C@H](CCCNC(=N)N)C(=O)N[C@@H](CC(C)C)C(=O)N[C@@H](CCC(N)=O)C(N)=O)[C@@H](C)O` (X1-VPIFTYGELA[dR]LQ-NH2) had a T1/2 of 131.9. Moreover, the ED50 in data set [3] came out at 0.026 nmol.

`CC[C@H](C)[C@H](NC(=O)[C@@H]1CCCN1C(=O)[C@@H](NC(=O)[C@H](Cc1ccccc1)N(C)C)C(C)C)C(=O)N[C@@H](Cc1ccccc1)C(=O)N[C@H](C(=O)N[C@@H](Cc1ccc(O)cc1)C(=O)NCC(=O)N[C@@H](CCC(=O)O)C(=O)N[C@@H](CC(C)C)C(=O)N[C@@H](C)C(=O)N[C@H](CCCNC(=N)N)C(=O)N[C@@H](CC(C)C)C(=O)N[C@@H](CCCCN)C(N)=O)[C@@H](C)O` (NMe2Phe-VPIFTYGELA[dR]LK-NH2): on motilin receptor, the IC50 was 1.23 nM. Further, in data set [2], the pEC50 was determined as 7.64. In data set [3], this compound showed an ED50 of 0.003 nmol.

`CC[C@H](C)[C@H](NC(=O)[C@@H]1CCCN1C(=O)[C@@H](NC(=O)[C@H](Cc1ccccc1)[N+](C)(C)C)C(C)C)C(=O)N[C@@H](Cc1ccccc1)C(=O)N[C@H](C(=O)N[C@@H](Cc1ccc(O)cc1)C(=O)NCC(=O)N[C@@H](CCC(=O)O)C(=O)N[C@@H](CC(C)C)C(=O)N[C@@H](CCC(N)=O)C(=O)N[C@H](CCCNC(=N)N)C(=O)N[C@@H](CC(C)C)C(=O)N[C@@H](CCC(N)=O)C(N)=O)[C@@H](C)O` (X1-VPIFTYGELQ[dR]LQ-NH2) came in with a T1/2 in data set [1] of 95. Besides, in data set [3], the ED50 was 0.017 nmol.

With `CC[C@H](C)[C@H](NC(=O)[C@@H]1CCCN1C(=O)[C@@H](NC(=O)[C@H](Cc1ccccc1)N(C)C)C(C)C)C(=O)N[C@@H](Cc1ccccc1)C(=O)N[C@H](C(=O)N[C@@H](Cc1ccc(O)cc1)C(=O)NCC(=O)N[C@@H](CCC(=O)O)C(=O)N[C@@H](CC(C)C)C(=O)N[C@@H](CCC(N)=O)C(=O)N[C@H](CCCNC(=N)N)C(=O)N[C@@H](CC(C)C)C(=O)N[C@@H](CCCCN)C(N)=O)[C@@H](C)O` (NMe2Phe-VPIFTYGELQ[dR]LK-NH2), at motilin receptor, the IC50 is 1.17 nM. The pEC50 in data set [2] came out at 7.73. Further, the ED50 in data set [3] was 0.002 nmol.

Take `CC[C@H](C)[C@H](NC(=O)[C@H](C)NC(=O)[C@@H](NC(=O)[C@H](Cc1ccccc1)N(C)C)C(C)C)C(=O)N[C@@H](Cc1ccccc1)C(=O)N[C@H](C(=O)N[C@@H](Cc1ccc(O)cc1)C(=O)NCC(=O)N[C@@H](CCC(=O)O)C(=O)N[C@@H](CC(C)C)C(=O)N[C@@H](C)C(=O)N[C@H](CCCNC(=N)N)C(=O)N[C@@H](CC(C)C)C(=O)N[C@@H](CCCCN)C(N)=O)[C@@H](C)O` (NMe2Phe-VAIFTYGELA[dR]LK-NH2): the IC50 on motilin receptor is 0.708 nM. In data set [2], this compound yielded a pEC50 of 7.74. The same compound yielded an ED50 in data set [3] of 0.003 nmol.

Turning to `CC[C@H](C)[C@H](NC(=O)[C@@H]1CCCN1C(=O)[C@@H](NC(=O)[C@H](Cc1ccccc1)NC)C(C)C)C(=O)N[C@@H](Cc1ccccc1)C(=O)N[C@H](C(=O)N[C@@H](Cc1ccc(O)cc1)C(=O)NCC(=O)N[C@@H](CCC(=O)O)C(=O)N[C@@H](CC(C)C)C(=O)N[C@@H](CCC(N)=O)C(=O)N[C@H](CCCNC(=N)N)C(=O)N[C@@H](CC(C)C)C(=O)N[C@@H](CCCCN)C(N)=O)[C@@H](C)O` (H-[NMeF]VPIFTYGELQ[dR]LK-NH2), the T1/2 in data set [1] came to 41. For the same compound, in data set [3], the ED50 is 0.025 nmol.

Consider `CC[C@H](C)[C@H](NC(=O)[C@H](C)NC(=O)[C@@H](NC(=O)[C@H](Cc1ccccc1)NC)C(C)C)C(=O)N[C@@H](Cc1ccccc1)C(=O)N[C@H](C(=O)N[C@@H](Cc1ccc(O)cc1)C(=O)NCC(=O)N[C@@H](CCC(=O)O)C(=O)N[C@@H](CC(C)C)C(=O)N[C@@H](C)C(=O)N[C@H](CCCNC(=N)N)C(=O)N[C@@H](CC(C)C)C(=O)N[C@H](CCCCN)C(N)=O)[C@@H](C)O` [[1-N-Methylphenylalanine, 3-alaninc, 11-alanine, 12-D-arginine, 13-Leucine, 14-D-lysine]motilin-(1-14)-peptide Amide (Porcine) Tris-trifluoroacetate Salt] (H-[NMeF]VAIFTYGELA[dR]L[dK]-NH2), for which the IC50 on motilin receptor was 0.447 nM. For the same compound, in data set [2], the pEC50 came out at 7.80. Further, in data set [3], the ED50 turned out to be 0.024 nmol.
